Some test systems named below: COLO 205 colon; NCI-H522 lung; SK-MEL-28 melanoma; OVCAR-3 ovarian; PC-3 prostate; OVCAR-8 ovarian; HOP-62 NSCLC; OVCAR-5 ovarian; CCRF-CEM leukemia; UO-31 renal; UACC-62 melanoma; SF-268 CNS; MDA-MB-231 breast; RXF 393 renal; HCT-15 colon; SR leukemia; MCF7 breast; 786-0 renal; HT29 colon; HCT-116 colon.
Holding throughout (assay): DTP human tumour cell line panel, 48 h

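A five-concentration, 48-hour dose response in 96-well plates underlies each endpoint, interpolated linearly between surrounding concentrations. The concentration for full growth arrest is given as TGI.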

In general, TGI refers to the concentration at which net growth stops. Read a low TGI as more potent growth arrest. On to `c1cncc(CSc2ncnc3nc[nH]c23)c1`, for which the TGI in the assay on COLO 205 colon, with NCI-H522 lung, in the assay on SK-MEL-28 melanoma, in the assay with OVCAR-3 ovarian, with PC-3 prostate and in the assay with OVCAR-8 ovarian was greater than 100 µM in each case. The TGI in the assay with HOP-62 NSCLC, with OVCAR-5 ovarian, in the assay with CCRF-CEM leukemia, with UO-31 renal, in the assay with UACC-62 melanoma and with SF-268 CNS was greater than 100 µM in each case. Further, the concentration for total growth inhibition (TGI) in the assay on MDA-MB-231 breast, in the assay on RXF 393 renal, in the assay with HCT-15 colon, in the assay on SR leukemia, with MCF7 breast and in the assay with 786-0 renal was greater than 100 µM in each case. In addition, the TGI with HT29 colon and in the assay with HCT-116 colon was greater than 100 µM throughout.

On to `CCOC(=O)/C=C/C1(CCOC(C)=O)CCCCC1`, for which the TGI with COLO 205 colon, with NCI-H522 lung, in the assay with SK-MEL-28 melanoma, in the assay on OVCAR-3 ovarian, with PC-3 prostate and with OVCAR-8 ovarian was greater than 10 µM each time. Besides, the TGI with HOP-62 NSCLC, in the assay on OVCAR-5 ovarian, in the assay on CCRF-CEM leukemia, with UO-31 renal, in the assay on UACC-62 melanoma and with SF-268 CNS was greater than 10 µM in each case. For the same molecule, the concentration for total growth inhibition (TGI) in the assay on MDA-MB-231 breast, with RXF 393 renal, with HCT-15 colon, with SR leukemia, in the assay with MCF7 breast and in the assay on 786-0 renal was greater than 10 µM throughout. Further, the concentration for total growth inhibition (TGI) with HT29 colon and with HCT-116 colon was greater than 10 µM each time.

On to `CC(C)CCC[C@@H](C)[C@H]1CC[C@H]2C3=C[C@H](OS(=O)(=O)O)[C@@]4(O)C[C@@H](O)CC[C@]4(C)[C@@]3(O)CC[C@]12C`, for which the total growth inhibition concentration (TGI) with COLO 205 colon, in the assay with NCI-H522 lung, in the assay on SK-MEL-28 melanoma, in the assay on OVCAR-3 ovarian, with PC-3 prostate and with OVCAR-8 ovarian was greater than 100 µM throughout. For the same molecule, the concentration for total growth inhibition (TGI) with HOP-62 NSCLC, in the assay on OVCAR-5 ovarian, in the assay with CCRF-CEM leukemia, in the assay on UO-31 renal, in the assay with UACC-62 melanoma and in the assay with SF-268 CNS was greater than 100 µM throughout. Also, the TGI in the assay with MDA-MB-231 breast, in the assay with RXF 393 renal, in the assay with HCT-15 colon, with SR leukemia, with MCF7 breast and in the assay on 786-0 renal was greater than 100 µM throughout. For the same molecule, the total growth inhibition concentration (TGI) with HT29 colon and in the assay with HCT-116 colon was greater than 100 µM in each case.

As for `CSc1nc2c3ccccc3ccn2c1C(=O)N/N=C/c1ccccc1`, the TGI is greater than 100 µM with COLO 205 colon; greater than 100 µM in the assay on NCI-H522 lung; greater than 100 µM in the assay on SK-MEL-28 melanoma; 37.4 µM with OVCAR-3 ovarian; greater than 100 µM in the assay on PC-3 prostate; 44.7 µM with OVCAR-8 ovarian. The total growth inhibition concentration (TGI) with HOP-62 NSCLC is 27.2 µM; in the assay on OVCAR-5 ovarian it was greater than 100 µM; with CCRF-CEM leukemia, greater than 100 µM; with UO-31 renal it was 42.7 µM; with UACC-62 melanoma, greater than 100 µM; in the assay on SF-268 CNS it was greater than 72.1 µM. The total growth inhibition concentration (TGI) in the assay on MDA-MB-231 breast is 40.8 µM; with RXF 393 renal it was greater than 79.4 µM; in the assay with HCT-15 colon, greater than 100 µM; with SR leukemia it was greater than 100 µM; with MCF7 breast it was greater than 100 µM; in the assay with 786-0 renal, 42.3 µM. The concentration for total growth inhibition (TGI) in the assay on HT29 colon is greater than 100 µM; in the assay with HCT-116 colon, 38.2 µM.

Turning to `CCCC(=O)OCOC(=O)N(C)N=Nc1ccc(C(=O)OCC)cc1`, the TGI in the assay with COLO 205 colon was 51.5 µM; in the assay on NCI-H522 lung it was 38 µM; in the assay on SK-MEL-28 melanoma, greater than 100 µM; in the assay with OVCAR-3 ovarian, greater than 100 µM; in the assay with PC-3 prostate, 97.1 µM; in the assay on OVCAR-8 ovarian, 84.7 µM. The TGI was greater than 100 µM in the assay with HOP-62 NSCLC; greater than 100 µM in the assay on OVCAR-5 ovarian; greater than 100 µM in the assay on CCRF-CEM leukemia; greater than 100 µM with UO-31 renal; 44.2 µM with UACC-62 melanoma; greater than 100 µM in the assay with SF-268 CNS. In addition, the TGI in the assay on MDA-MB-231 breast is greater than 100 µM; with RXF 393 renal, 33.5 µM; with HCT-15 colon it was 75.4 µM; with SR leukemia it was greater than 100 µM; with MCF7 breast it was 45.5 µM; in the assay on 786-0 renal, 59.8 µM. Moreover, the TGI came out at 41.6 µM with HT29 colon and 46.6 µM in the assay with HCT-116 colon.

Consider `FC(F)(F)c1cccnc1Sc1nc2ccccc2s1`, for which the total growth inhibition concentration (TGI) with COLO 205 colon, in the assay on NCI-H522 lung, in the assay on SK-MEL-28 melanoma, in the assay with OVCAR-3 ovarian, in the assay on PC-3 prostate and with OVCAR-8 ovarian was greater than 100 µM throughout. Also, the TGI with HOP-62 NSCLC, in the assay on OVCAR-5 ovarian, in the assay on CCRF-CEM leukemia, in the assay with UO-31 renal, with UACC-62 melanoma and with SF-268 CNS was greater than 100 µM each time. The concentration for total growth inhibition (TGI) with MDA-MB-231 breast, in the assay with RXF 393 renal, in the assay on HCT-15 colon, in the assay with SR leukemia, in the assay on MCF7 breast and in the assay with 786-0 renal was greater than 100 µM throughout. The TGI in the assay on HT29 colon and in the assay with HCT-116 colon was greater than 100 µM throughout.

The record behind these values is PubChem BioAssay (NCI).
